Experimental data: patent US3984470A, “Amidoxime derivatives and process for preparing the same” (priority 1974, dated 1976)

Legend:
[1] = test system: reserpine-induced ptosis; experiment: Reserpine-induced ptosis in the rat; format: in vivo, male rats of the CF1 strain; settings: reserpine 5 mg/kg i.p., score scale 0-4, mean to 6th hour vs controls
Method: (§1) The thymoanaleptic properties of the compounds of the invention were determined by means of reserpine-induced ptosis and hypothermia in the rat.
An intraperitoneal dose of 5 mg/kg of reserpine was administered to batches of 5 male rats of the CF1 strain weighing an average of 300 g.
Thirty minutes later a dose of the compound to be studied was given by oral route and the inhibitory effect of the reserpine was noted every hour up to the sixth hour. Ptosis was evaluated for each eye in accordance with the following scale:
4 : eyelids completely closed.
The difference between these two averages represents the average decrease of the ptosis in the treated animals as compared to the controls.

[2] = test system: stereotypies induced by amphetamine; experiment: Potentiation of the stereotypies induced by amphetamine; format: in vivo, rats
Method: It is commonly admitted that amphetamine induces stereotypies by stimulating the dopaminergic receptors and inhibiting the re-uptake of dopamine into the neuron.
The thymoanaleptics potentiate these stereotypies.
Thirty minutes later, a dose of 10 mg/kg of the compound to be tested was given by oral route. Note was taken of the intensity of the stereotypies every 30 minutes for 150 minutes in accordance with the following scale which indicates the behaviour of the animal.
0 : the rat is motionless and asleep
1 : the rat is motionless and awake
3 : the rat stands on its hind paws and sniffs the lid of its cage in a stereotyped manner.
4 : the rat licks the walls of its cage in a stereotyped manner
5 : the rat bites the bars of its cage or sniffs the shavings of its litter in a stereotyped manner
6 : the rat chews the shavings in a stereotyped manner
The average of the 5 results obtained for each batch was calculated and compared with the average obtained with the control animals.
The difference between these averages represents the mean increase of the steroetypies of the treated animals in comparison with the controls.

[3] = test system: toxicity of yohimbine; experiment: Potentiation of the toxicity of yohimbine (test of QUINTON); format: in vivo, male mice; settings: Mus musculus; 50 mg/kg oral; yohimbine hydrochloride 25 mg/kg i.p.; mortality after 24 hours
Method: Yohimbine is a substance which provokes an increase in the serotonine level in the brain or a decrease in norepinephrine according to the author.
For this purpose, the test of QUINTON was used which is described in Brit. J. Pharmacol. 21, 51 (1963). […] […] The percentage of mortality was noted after 24 hours.
Table III hereunder expresses the percentage of potentiation of the toxicity due to yohimbine in comparison with the controls.
The percentage in question was determined 24 hours after the administration of yohimbine.

[4] = test system: reserpine-induced hypothermia; experiment: Reserpine-induced hypothermia in the rat; format: in vivo, male rats CF1; settings: reserpine 5 mg/kg i.p., mean to 6th hour vs controls
Method: as §1
An intraperitoneal dose of 5 mg/kg of reserpine was administered to batches of 5 male rats CF1 weighing an average of 300 g. Thirty minutes later, the rectal temperature was determined and then a dose of the compound to be tested was given by oral route, except to the control animals. The rectal temperature of all the animals including the controls was taken every hour up to the 6th hour.
The difference between these two averages enabled an estimation to be made regarding the antagonistic effect of the compounds of the invention on the hypothermia induced by reserpine.

[5] = test system: cholinergic effects provoked by tremorine; experiment: Cholinolytic properties: action with respect to tremorine; format: in vivo, male mice of the OF1 strain; settings: tremorine 10 mg/kg, difference vs controls
Method: When injected into mice, tremorine and its metabolite, oxotremorine, produce central cholinergic effects, i.e. normal and provoked tremor as well as peripheral cholinergic effects i.e. weeping, sweating diarrhoea and salivation.
Male mice of the OF1 strain weighing 22 g, were divided into batches of 10. Each batch with the exception of the control animals, received, by oral route, a dose of the compound to be tested.
Thirty minutes later, 10 mg/kg of tremorine were administered to all the batches and thirty minutes after the injection of tremorine note was taken of the cholinergic effects on each animal in accordance with the following scale: […]

[6] = test system: aggressivity of killer rats; experiment: Aggressivity of killer rats; format: in vivo, male rats; settings: Rattus norvegicus, ip, 0.5 h, 30 minutes after administration
Text: If, under certain conditions, male rats are kept alone in individual cages for several weeks, the become spontaneously aggressive towards any mouse, which they kill as soon as it is placed in the same cage. Mice were introduced one after another into cages containing an isolated rat and a selection was made of the rats which immediately killed three mice. In this way batches of 6 to 8 rats were constituted. The rats were then given the compound to be studied by intraperitoneal route in such a way that each batch received a higher dose than the preceding batch. […] Table V which follows contains the results obtained 30 minutes after administration of the compound to be studied.

[7] = 10 mg/kg oral, amphetamine 10 mg/kg i.p., every 30 min for 150 min
[8] = 20 mg/kg, same conditions (amphetamine 10 mg/kg i.p.)

Compound | Average decrease of Ptosis ([1]; 10 mg/kg oral) | Average increase of the stereotypies [2, 7] | mortality at 50 mg/kg [3] [%] | Average inhibition of hypothermia (positive °C) ([4]; 10 mg/kg oral) [°C] | further results
Cc1oc2cc(OCC(N)=NO)ccc2c1C [Compound 21, 2-(2,3-Dimethyl-6-benzofuryloxy)-acetamidoxime] | 0.3 | 4.2 | 40 |  | 
CCC(Oc1cccc2occc12)C(N)=NO (stereo not drawn) [Compound 43, 2-(4-Benzofuryloxy)-butyramidoxime] |  | 5.5 | 60 |  | 
CC(Oc1c(C(C)C)oc2ccccc12)C(N)=NO (stereo not drawn) [Compound 24, 2-(2-Isopropyl-3-benzofuryloxy)-propionamidoxime] | 0.2 | 3.8 | 30 | 0.8 | 
Cc1oc2ccc(OCCC(N)=NO)cc2c1C [Compound 23, 3-(2,3-Dimethyl-5-benzofuryloxy)-propionamidoxime] | 0.2 |  |  | 0.3 | 
CCc1oc2ccccc2c1OC(C)C(N)=NO (stereo not drawn) [Compound 17, 2-(2-Ethyl-3-benzofuryloxy)-propionamidoxime] | 0.4 | 1.2 | 20 |  | Central response tremor: Normal ([5]; 25 mg/kg oral): -0.8; Central response tremor: Provoked ([5]; 25 mg/kg oral): 0; Peripheral cholinergic response: Salivat. ([5]; 25 mg/kg oral): 0; Peripheral cholinergic response: Sweating ([5]; 25 mg/kg oral): 0; Peripheral cholinergic response: Weeping ([5]; 25 mg/kg oral): 0
CCC(Oc1ccc2ccccc2c1)C(N)=NO (stereo not drawn) [Compound 37, 2-(2-Naphthyloxy)-butyramidoxime] |  | 1.8 |  | 0.5 | 
CC(Oc1ccc2ccoc2c1)C(N)=NO (stereo not drawn) [Compound 28, 2-(6-Benzofuryloxy)-propionamidoxime] |  |  |  |  | Average decrease of Ptosis ([1]; 100 mg/kg oral): 2.4; Average inhibition of hypothermia (positive °C) ([4]; 100 mg/kg oral): 1.1 °C
Cc1oc2ccc(OCC(N)=NO)cc2c1C [Compound 15, 2-(2,3-Dimethyl-5-benzofuryloxy)-acetamidoxime] | 0.5 | 1 | 10 |  | 
NC(COc1ccc2ccoc2c1)=NO [Compound 25, 2-(6-Benzofuryloxy)-acetamidoxime] | 0.2 | 4.4 | 30 |  | 
CC(Oc1cccc2c1OCCO2)C(N)=NO (stereo not drawn) [Compound 45, 2-[(1,4-Benzodioxanyl)-5-oxy]-propionamidoxime] |  | 3 | 10 |  | 
CC(C)c1oc2ccccc2c1OCC(N)=NO [Compound 36, 2-(2-Isopropyl-3-benzofuryloxy)-acetamidoxime] |  | 1.8 |  | 0.7 | 
Cc1cc2cc(OCCC(N)=NO)ccc2o1 [Compound 32, 3-(2-Methyl-5-benzofuryloxy)-propionamidoxime] |  |  |  |  | Average decrease of Ptosis ([1]; 100 mg/kg oral): 2.3
CC(C)(Oc1cccc2c1OCCO2)C(N)=NO [Compound 38, 2-[(1,4-Benzodioxanyl)-5-oxyl]-2-methyl-propionamidoxime] |  |  | 10 | 0.5 | 
Cc1oc2ccccc2c1OC(C)C(N)=NO (stereo not drawn) [Compound 16, 2-(2-Methyl-3-benzofuryloxy)-propionamidoxime] | 0.5 |  |  |  | 
CCc1oc2ccccc2c1OC(CC)C(N)=NO (stereo not drawn) [Compound 10, 2-(2-Ethyl-3-benzofuryloxy)-butyramidoxime] | 0.8 | 5.6 | 10 |  | 
Cc1oc2ccccc2c1OC(C)(C)C(N)=NO [Compound 22, 2-(2-Methyl-3-benzofuryloxy)-2-methyl-propionamidoxime] | 0.3 | 4.2 |  | 0.5 | Central response tremor: Normal ([5]; 10 mg/kg oral): 0; Central response tremor: Provoked ([5]; 10 mg/kg oral): 0; Peripheral cholinergic response: Salivat. ([5]; 10 mg/kg oral): 0; Peripheral cholinergic response: Sweating ([5]; 10 mg/kg oral): 0; Peripheral cholinergic response: Weeping ([5]; 10 mg/kg oral): 0

Compound | Average decrease of Ptosis ([1]; 10 mg/kg oral) | Average increase of the stereotypies [2, 7] | mortality at 50 mg/kg [3] [%] | Average inhibition of hypothermia (positive °C) ([4]; 10 mg/kg oral) [°C] | further results
CC(C)(Oc1cccc2ccccc12)C(N)=NO [Compound 11, 2-(1-Naphtyloxy)-2-methyl-propionamidoxime] | 0.7 |  |  |  | Average inhibition of hypothermia (positive °C) ([4]; 20 mg/kg oral): 0.5 °C
CC(Oc1ccc2occc2c1)C(N)=NO (stereo not drawn) [Compound 29, 2-(5-Benzofuryloxy)-propionamidoxime] |  |  |  |  | Average decrease of Ptosis ([1]; 100 mg/kg oral): 2.4; Average increase of the stereotypies [2, 8]: 5; Average inhibition of hypothermia (positive °C) ([4]; 100 mg/kg oral): 0.8 °C
CCc1oc2ccccc2c1OCCC(N)=NO [Compound 13, 3-(2-Ethyl-3-benzofuryloxy)-propionamidoxime] | 0.7 | 2.4 |  |  | Central response tremor: Normal ([5]; 25 mg/kg oral): 0; Central response tremor: Provoked ([5]; 25 mg/kg oral): 0; Peripheral cholinergic response: Salivat. ([5]; 25 mg/kg oral): 0; Peripheral cholinergic response: Sweating ([5]; 25 mg/kg oral): 0; Peripheral cholinergic response: Weeping ([5]; 25 mg/kg oral): 0
CCC(Oc1cccc2ccoc12)C(N)=NO (stereo not drawn) [Compound 42, 2-(7-Benzofuryloxy)-butyramidoxime] |  |  | 60 |  | 
CCC(Oc1c(C)oc2ccccc12)C(N)=NO (stereo not drawn) [Compound 39, 2-(2-Methyl-3-benzofuryloxy)-butyramidoxime] |  |  | 40 | 0.3 | 
Cc1oc2ccccc2c1OCCC(N)=NO [Compound 19, 3-(2-Methyl-3-benzofuryloxy)-propionamidoxime] | 0.3 |  | 10 |  | 
Cc1oc2c(OC(C)C(N)=NO)cccc2c1C (stereo not drawn) [Compound 44, 2-(2,3-Dimethyl-7-benzofuryloxy)-propionamidoxime] |  |  | 40 |  | 
CC(C)c1oc2ccccc2c1OC(C)(C)C(N)=NO [Compound 35, 2-(2-Isopropyl-3-benzofuryloxy)-2-methyl-propionamidoxime] |  | 3 |  | 0.7 | 
CCC(Oc1ccc2ccoc2c1)C(N)=NO (stereo not drawn) [Compound 31, 2-(6-Benzofuryloxy)-butyramidoxime] |  |  |  |  | Average decrease of Ptosis ([1]; 100 mg/kg oral): 2.3
CC(C)(Oc1ccc2ccccc2c1)C(N)=NO [Compound 40, 2-(2-Naphthyloxy)-2-methyl-propionamidoxime] |  |  |  | 0.2 | 
Cc1oc2ccccc2c1OCC(N)=NO [Compound 12, 2-(2-Methyl-3-benzofuryloxy)-acetamidoxime] | 0.7 |  |  |  | inhibition in vivo at 25 mg/kg ([6]; 25 mg/kg i.p.): 27%
Cc1cc2cc(OCC(N)=NO)ccc2o1 [Compound 33, 2-(2-Methyl-5-benzofuryloxy)-acetamidoxime] |  |  |  |  | Average decrease of Ptosis ([1]; 100 mg/kg oral): 2.0; Average increase of the stereotypies [2, 8]: 4; inhibition in vivo at 20 mg/kg ([6]; 20 mg/kg i.p.): 60%
CCc1oc2ccccc2c1OCC(N)=NO [Compound 27, 2-(2-Ethyl-3-benzofuryloxy)-acetamidoxime] |  |  | 20 |  | Average decrease of Ptosis ([1]; 20 mg/kg oral): 0.3
CCC(Oc1c(C(C)C)oc2ccccc12)C(N)=NO (stereo not drawn) [Compound 20, 2(2-Isopropyl-3-benzofuryloxy)-butyramidoxime] | 0.3 |  |  | 0.8 | 
CCC(Oc1cccc2c(C)c(C)oc12)C(N)=NO (stereo not drawn) [Compound 41, 2-(2,3-Dimethyl-7-benzofuryloxy)-butyramidoxime] |  |  |  |  | Average inhibition of hypothermia (positive °C) ([4]; 100 mg/kg oral): 1.1 °C
NC(COc1cccc2ccoc12)=NO [Compound 7, 2-(7-Benzofuryloxy)-acetamidoxime] | 1.4 | 4.8 | 60 | 0.6 | 
